Results taken from patent publication US6919317B2, “Pharmaceutical composition comprising squalene epoxidase inhibitor and macrolide immunomodulator” (priority 2000, dated 2005).

Assays:
Type in all cases: cell-based
Candida albicans = assay: NCCLS broth dilution combination study in yeast (modified M27-T), Candida albicans isolate; conditions: for Antifungal activity of test compound alone: C. albicans isolate; for Interaction with fluconazole, C. albicans / Interaction with terbinafine, C. albicans: interpretation of FICI, MIC = 80% inhibition of growth, 48 hours; for Interaction with terbinafine, C. albicans: 37°, pH 7.0, isolate susceptible to both drugs
Procedure: (§1) Combination studies are performed with Candida species, using the NCCLS standard assay (National Committee for Clinical Laboratory Standards [1995], Reference method for broth dilution antifungal susceptibility testing of yeasts (Tentative Standard M27-T, NCCL, Villanova, Pa., U.S.A.), modified as follows: the assay is effected in RPMI 1640 medium without NaHCO3 but with L-glutamine buffered with MOPS at pH 7.0 at 37°. The inoculum is 2.5×10^3 cfu/ml. Incubation times are 48 hours. The MIC is defined as the lowest drug concentration causing 80% inhibition of fungal growth.
(§2) The reference test compound (either terbinafine or fluconazole) is tested in a full concentration range in the absence or presence of the other test drug at 1, 2, 4, and 8 μg/ml.
(§3) Interaction between the drugs is analysed by calculation of the Fractional Inhibitory Concentration Index (FICI), defined as: FICI=[(MIC A in combination)/MIC A]+[MIC B in combination]/MIC B]
(§4) Interpretation of FICI in terms of interaction between the two drugs is as follows: FICI=0.5: synergy; <0.5<FICI=1: additive; 1<FICI=2: indifferent; 2<FICI: antagonism (in practical terms, synergy by this definition means that the MICs of both drugs are reduced by at least 2 dilution steps when used in combination).
(§5) The ability of the four test compounds 33-epichloro,33-desoxyascomycin, 5,6-dehydroascomycin, ascomycin and tacrolimus to influence the antifungal activity of terbinafine and fluconazole was examined in a Candida albicans isolate susceptible to both drugs, and in one isolate of Candida krusei which is resistant to terbinafine and poorly responsive to fluconazole.

Candida krusei = assay: NCCLS broth dilution combination study in yeast (modified M27-T), Candida krusei isolate; conditions: for Antifungal activity of test compound alone: C. krusei isolate; for Interaction with terbinafine as reference compound (in words): against Candida krusei; for Interaction with fluconazole, C. krusei / Interaction with terbinafine, C. krusei: interpretation of FICI, MIC = 80% inhibition of growth, 48 hours; for Interaction with fluconazole, C. krusei: isolate poorly responsive to fluconazole; for Interaction with terbinafine, C. krusei: isolate resistant to terbinafine
Procedure: as §1, §2, §3, §4, §5

[1] = test system: Microsporum canis (strain NFI 5167); assay: Checkerboard combination study in dermatophyte, modified NCCLS microdilution M38-P; conditions: for MIC single drug: MIC = lowest concentration causing 80% inhibition of fungal growth; for MIC single drug / MIC combination: unit assumed; for MIC combination: terbinafine hydrochloride combined with 33-epichloro,33-desoxyascomycin, MIC = 80% inhibition
Procedure: Minimum Inhibitory Concentrations (MIC) against dermatophytes are determined in 96-well assay trays by a modification of the NCCLS microdilution procedure M38-P (National Committee for Clinical Laboratory Standards, Reference method for broth antifungal susceptibility testing of conidium-forming filamentous fungi; NCCLS document M38-P; NCCLS, Wayne, Pa., USA [1998]), as detailed in H. A. Norris et al., J. Am. Acad. Dermatol. 40 [1999] S9-S13). The MIC is defined as the lowest drug concentration causing 80% inhibition of fungal growth.
Combination studies are performed in a checkerboard design using the above assay to provide a matrix of all possible dose combination of the two drugs within the required concentration range. The matrix structure is provided by the microtiter trays used for the assay. The terbinafine dilution series is arranged on the y-axis (in columns) and the partner drug on the x-axis (in rows). In each row, well no. 1 contains the sterility control, well no. 2 contains terbinafine hydrochloride alone, wells no. 3 to no. 11 contain the dilution series of the partner drug 33-epichloro,33-desoxyascomycin, and well no. 12 contains the growth control. In each column, well A contains the partner drug alone and wells B to H contain the dilution series of terbinafine hydrochloride.
The nature of the interaction between the two drugs is defined quantitatively by means of the Fractional Inhibitory Concentration Index (FICI), which is calculated by the following formula: FICI=[(MIC A in combination)/MIC A]+[(MIC B in combination)/MIC B].
Interpretation of the FICI is: • ≦0.5: synergy; • >0.5 but ≦1: additive; • >1 but ≦2: indifferent; • >2: antagonism.
In practice, synergy calculated in this way is equivalent to a reduction of at least 2 dilution steps in the MIC of each drug when they are combined.

Structure (SMILES): C=CC[C@@H]1/C=C(\C)C[C@H](C)C[C@H](OC)[C@H]2O[C@@](O)(C(=O)C(=O)N3CCCC[C@H]3C(=O)O[C@H](/C(C)=C/[C@@H]3CC[C@@H](O)[C@H](OC)C3)[C@H](C)[C@@H](O)CC1=O)[C@H](C)C[C@@H]2OC [Tacrolimus, tacrolimus]
- Antifungal activity of test compound alone (Candida albicans): completely inactive
- Interaction with fluconazole, C. albicans (Candida albicans): − (−: indifferent/antagonistic)
- Interaction with terbinafine, C. albicans (Candida albicans): + (+: additive)
- Antifungal activity of test compound alone (Candida krusei): completely inactive
- Interaction with terbinafine as reference compound (in words) (Candida krusei): powerfully synergistic
- Interaction with fluconazole, C. krusei (Candida krusei): − (−: indifferent/antagonistic)
- Interaction with terbinafine, C. krusei (Candida krusei): (* ((*: synergy)

Structure (SMILES): CC[C@@H]1/C=C(\C)C[C@H](C)C[C@H](OC)[C@H]2O[C@@](O)(C(=O)C(=O)N3CCCC[C@H]3C(=O)O[C@H](/C(C)=C/[C@@H]3CC[C@H](Cl)[C@H](OC)C3)[C@H](C)[C@@H](O)CC1=O)[C@H](C)C[C@@H]2OC [33-Epichloro,33-desoxy-ascomycin, {[1E-(1R,3R,4S)]1R,9S,12S, 13R,14S,17R,18E, 21S,23S,24R,25S,27R}-12-[2-(4-chloro-3-methoxycyclohexyl)-1-methylvinyl]-17-ethyl-1,14-dihydroxy-23,25-dimethoxy-13,19,21,27-tetramethyl-11,28,dioxa-4-azatricyclo [22.3.1.0(4,9)]octacos-18-ene-2,3,10,16-tetraone]
- FICI ([1]; combination with terbinafine hydrochloride): 0.28
- Interpretation (of FICI) ([1]; combination with terbinafine hydrochloride, ≦0.5: synergy): synergy
- MIC single drug [1]: 64 µg/mL
- MIC combination [1]: 16 µg/mL
- Antifungal activity of test compound alone (Candida albicans): completely inactive
- Interaction with fluconazole, C. albicans (Candida albicans): − (−: indifferent/antagonistic)
- Interaction with terbinafine, C. albicans (Candida albicans): + (+: additive)
- Antifungal activity of test compound alone (Candida krusei): completely inactive
- Interaction with terbinafine as reference compound (in words) (Candida krusei): strongly positive
- Interaction with fluconazole, C. krusei (Candida krusei): − (−: indifferent/antagonistic)
- Interaction with terbinafine, C. krusei (Candida krusei): − (−: indifferent/antagonistic)

Structure (SMILES): CC[C@@H]1/C=C(\C)C[C@H](C)C[C@H](OC)[C@H]2O[C@@](O)(C(=O)C(=O)N3C=CCC[C@H]3C(=O)O[C@H](/C(C)=C/[C@@H]3CC[C@@H](O)[C@H](OC)C3)[C@H](C)[C@@H](O)CC1=O)[C@H](C)C[C@@H]2OC [5,6-Dehydro-ascomycin, {1R,5Z,9S,12S-[1E-(1R,3R,4R)],13R,14S,17R,18E,21S,23S,24R,25S,27R}-17-ethyl-1,14-dihydroxy-12-[2-(4-hydroxy-3-methoxycyclohexyl)-1-methylvinyl]-23,25-dimethoxy-13,19,21,27-tetramethyl-11,28-dioxa-4-azatricyclo[22.3.1.0(4,9)]octacos-5,18-diene-2,3,10,16-tetraone]
- Antifungal activity of test compound alone (Candida albicans): completely inactive
- Interaction with fluconazole, C. albicans (Candida albicans): − (−: indifferent/antagonistic)
- Interaction with terbinafine, C. albicans (Candida albicans): + (+: additive)
- Antifungal activity of test compound alone (Candida krusei): completely inactive
- Interaction with terbinafine as reference compound (in words) (Candida krusei): strongly positive
- Interaction with fluconazole, C. krusei (Candida krusei): − (−: indifferent/antagonistic)
- Interaction with terbinafine, C. krusei (Candida krusei): − (−: indifferent/antagonistic)

Structure (SMILES): CN(C/C=C/C#CC(C)(C)C)Cc1cccc2ccccc12 [terbinafine, (E)-N-methyl-N-(1-naphthylmethyl)-6,6-dimethylhept-2-en-4-amin]
- MIC single drug [1]: 0.031 µg/mL
- MIC combination [1]: 0.001 µg/mL

Structure (SMILES): CC[C@@H]1/C=C(\C)C[C@H](C)C[C@H](OC)[C@H]2O[C@@](O)(C(=O)C(=O)N3CCCC[C@H]3C(=O)O[C@H](/C(C)=C/[C@@H]3CC[C@@H](O)[C@H](OC)C3)[C@H](C)[C@@H](O)CC1=O)[C@H](C)C[C@@H]2OC [Ascomycin, ascomycin]
- Antifungal activity of test compound alone (Candida albicans): completely inactive
- Interaction with fluconazole, C. albicans (Candida albicans): − (−: indifferent/antagonistic)
- Interaction with terbinafine, C. albicans (Candida albicans): + (+: additive)
- Antifungal activity of test compound alone (Candida krusei): completely inactive
- Interaction with terbinafine as reference compound (in words) (Candida krusei): powerfully synergistic
- Interaction with fluconazole, C. krusei (Candida krusei): − (−: indifferent/antagonistic)
- Interaction with terbinafine, C. krusei (Candida krusei): (* ((*: synergy)

Structure (SMILES): OC(Cn1cncn1)(Cn1cncn1)c1ccc(F)cc1F [fluconazole]
- Interaction of fluconazole with the macrolide test compounds (in words) (Candida albicans; Candida albicans, statement covers both Candida isolates): no potent synergy
- Interaction of fluconazole with the macrolide test compounds (in words) (Candida krusei; Candida krusei, statement covers both Candida isolates): no potent synergy
